Test results as given in publication PMC6120666 (The EMBO Journal, 2018).

Assays:
U2OS/NOD2 cells = assay: Intracellular flow cytometry of CXCL8 after L18-MDP; type: cell-based, human; conditions: U2OS/NOD2 cells, L18-MDP 200 ng/ml, 4 h
Protocol: Purified material and lysates were analyzed by immunoblotting. […] Numbering below schematic refers to amino acid residues in human RIPK2 and indicate domain boundaries. […] Data information: Data in (A, B, D, H) represent the mean ± SEM of 2–4 independent experiments, each performed in duplicate. […] Two‐way ANOVA was used to determine statistical significance. See also Fig EV1.Source data are available online for this figure.
Dark gray represents areas occupied by RIPK2; white areas indicate empty spaces in CSLP binding pocket. […] Dotted black box indicates region shown for models with CSLP37 and CSLP43. • Molecular docking model of RIPK2 kinase domain in complex with CSLP43 (green) based on RIPK2/CSLP18 structure from (D). […] Two‐way ANOVA was used to determine statistical significance. See also Fig EV2.
GST-BIR2-XIAP as indicated. Intensity quantification of SPOTs was performed using ImageJ software
Dual luciferase reporter assay
Intracellular flow cytometry of CXCL8
for cell death) or vehicle for 24h. Viability was determined using the CellTiter-Glo® luminescent cell
together with Transfection Carrier DNA (Promega).
After addition of Nano-Glo

[1] = system: RIPK2 ubiquitination in U2OS/NOD2 and THP-1 cells; assay: Purification of Ub-conjugates (TUBE pulldown), RIPK2 ubiquitination; type: cell-based, human; conditions: U2OS/NOD2 or THP-1 cells, L18-MDP 200 ng/ml, 1 h
Protocol: For co‐immunoprecipitation of HA‐XIAP with RIPK2, transfected and treated cells were lysed in TBS buffer containing 0.5% NP‐40, cOmplete and PhosSTOP inhibitors (Roche) and the lysate was cleared by centrifugation. The lysates were incubated with anti‐HA‐agarose overnight, washed 3× with lysis buffer, and analyzed by immunoblotting. For GST pulldown experiments, U2OS/NOD2 cells were lysed in TBS lysis buffer containing 0.5% NP‐40, cOmplete and PhosSTOP inhibitors (Roche). Cleared lysates were pretreated with kinase inhibitors or DMSO and incubated with GST‐XIAP‐BIR2 bound to Glutathione Sepharose at 4°C overnight. Bound material was washed 3× with lysis buffer or PBS, eluted with 15 mM Glutathione in PBS, and analyzed by immunoblotting. […] The bound material was eluted and analyzed as described above. […]
PBS, eluted with 15 mM Glutathione in PBS and analyzed by immunoblotting. […]

recombinant RIPK2 kinase = target: T1, recombinant RIPK2 kinase (Homo sapiens, UniProt O43353); assay: RIPK2 ADPGlo in vitro kinase assay; type: biochemical; conditions: average ± SD of at least three titrations, read-out: IC50, In vitro kinase, RIPK2 ADPGIo
T1 construct: made in house
Excerpt: The BIR2 domains of XIAP and cIAP1 were cloned into the pGEX‐6P1 vector and were expressed in E. coli (BL21) cells as a fusion protein with N‐terminal 6xHis (XIAP BIR2 only) and GST tags. Protein expression was induced with IPTG, and cells were lysed using BugBuster protein extraction reagent (#70921, Merck Millipore) according to manufacturer's instructions. Proteins were purified with the FPLC protein purification system ÄKTA PrimePlus (GE Healthcare Life Sciences) using HisTrap FF column purification followed by gel filtration (HiLoad 26/600 Superdex 75 pg (GE Healthcare Life Sciences)). Collected fractions were stored at −80°C and used for probing of peptide array membranes. Expression and purification of recombinant RIPK1‐3 was performed as previously described (Canning et al, 2015; Najjar et al, 2015). RIPK1‐3 ADPGlo kinase assays using 20 ng/well protein were performed for 2 h at room temperature also as previously described (Canning et al, 2015; Najjar et al, 2015).

NOD2/HEKBlue cells = assay: hNOD2-HEKBlue L18-MDP-induced NF-κB reporter assay; type: cell-based, human; conditions: Homo sapiens, HEK-Blue; L18-MDP-induced NF-κB reporter; average ± SD of at least three titrations
Protocol: For HEKBlue assay, cells were seeded into clear 96‐well plates at 7.5 × 10^3 cells/well and allowed to attach for 48 h. On the day of the experiment, media was changed to 100 μl of HEKBlue detection media (InvivoGen). Inhibitors were diluted and added in 0.5 μl DMSO 15 min prior to the addition of 1 ng/ml L18‐MDP (InvivoGen). After 8–9 h, absorbance at 620 nm was measured using Victor3V plate reader (Perkin Elmer, Waltham, MA). Values of media‐only wells were subtracted and %inhibition for each compound concentration relative to the DMSO/L18‐MDP‐treated controls was calculated. Inhibition values ± SD were fitted by non‐linear regression using Prism software (GraphPad Software, La Jolla, CA) to calculate IC50 values. For THP1Blue assay, 1 × 10^5 cells were seeded in 200 μl of RPMI media in 96‐well plates and treated with inhibitors in 0.5 μl DMSO for 15 min prior to the addition of 10 μg/ml MDP, 10 ng/ml Pam3CSK4, 10 ng/ml E. coli LPS, or 1 × 10^7 cells/ml heat‐killed L. monocytogenes (InvivoGen) for 24 h. After induction, 20 μl of media was mixed with 180 μl of QUANTI‐Blue reagent (InvivoGen) and incubated at 37°C for 3–4 h, followed by absorbance measurement at 620 nm. IC50 values were calculated as described for HEKBlue assay.
Cayman Chemical Company, Ann Arbor, MI), GSK583 (#HY-100339, MedChem Express, South Brunswick, NJ), WEHI-345 (MedKoo Biosciences, Morrisville, NC), Compound A (CpA, a kind gift from TetraLogic Pharmaceuticals, Malvern, PA). Generation of the CSLP compound series is described in Suebsuwong et al. 2018 (manuscript in preparation). hNOD2-HEKBlue and THP1Blue assays
For HEKBlue assay, cells were seeded into clear 96 well plates at 7.5x10^3 cells/well and allowed to attach for 48 h. On the day of the experiment, media was changed to 100 μl of HEKBlue detection media (InvivoGen). Inhibitors were diluted and added in 0.5 μl DMSO 15 min prior to the addition of 1 ng/ml L18-MDP (InvivoGen). After 8-9 h, absorbance at 620 nm was measured using Victor3V plate reader (Perkin Elmer, Waltham, MA). Values of media-only wells were subtracted and %inhibition for each compound concentration relative to the DMSO/L18-MDP-treated controls were calculated.
Inhibition values + StDev were fitted by non-linear regression using Prism software (GraphPad Software, La Jolla, CA) to calculate IC50 values. For THP1Blue assay, 1x10^5 cells were seeded in 200 μl of RPMI media in 96 well plates and treated with inhibitors in 0.5 μl DMSO 15 min prior to the addition of 10 µg/ml MDP, 10 ng/ml Pam3CSK4, 10 ng/ml E. coli LPS or 1x10^7 cells/ml heat-killed L. monocytogenes (InvivoGen) for 24 h. After induction, 20 μl of media was mixed with 180 μl of QUANTI-Blue reagent (InvivoGen) and incubated at 37 °C for 3-4 h, followed by absorbance measurement at 620 nm. IC50 values were calculated as described for HEKBlue assay. […]

NanoLuc-RIPK2 [2] = target: T2, NanoLuc-RIPK2 (Homo sapiens, UniProt O43353); assay: nanoBRET cellular RIPK2 target engagement assay in HEKBlue cells; conditions: average ± SD of at least three titrations, read-out: IC50, Cellular activity, nanoBRET RIPK2 binding
T2 construct: host or cells: hNOD2-HEKBlue cells

NanoLuc-RIPK2 [3] = target: T2, NanoLuc-RIPK2; assay: nanoBRET cellular RIPK2 residence time assay in HEKBlue cells; type: binding; conditions: t1/2 for probe to engage RIPK2 after washout of inhibitor
His6‐GST‐XIAP‐BIR2 D214S = target: T3, His6‐GST‐XIAP‐BIR2 D214S (UniProt P98170 124-242, D214S); assay: peptide or protein array; SPOT assay: selected RIPK2 peptides and their Ala-/Leu-scan variants spotted in triplicate on cellulose, probed with 6xHis-GST-BIR2 of XIAP (WT or D214S), detected with anti-His-HRP, spots quantified with ImageJ; conditions: both partners purified
T3 construct: not restated for the mutant; also called D214S BIR2 domain; D214S mutant; source: E. coli (BL21), purified (HisTrap FF, gel filtration); not shown: His6, N-terminal, kept; GST, N-terminal, kept

Molecule: CC(C)(C)S(=O)(=O)c1ccc2nccc(Nc3n[nH]c4ccc(F)cc34)c2c1 [GSK583, 6‐(tert‐Butylsulfonyl)‐N‐(5‐fluoro‐1H‐indazol‐3‐yl)quinolin‐4‐amine, reference compound]
- L18-MDP-induced CXCL8 production (U2OS/NOD2 cells): inhibited
- RIPK2 ubiquitination after L18-MDP [1]: antagonized

Molecule: CCCS(=O)(=O)Nc1cc(-c2cc(-c3ccc(N4CCNCC4)cc3)cnc2N)ccc1OC [CSLP18]
- IC50 (recombinant RIPK2 kinase): 31.6 ± 8.7 nM
- IC50 (NOD2/HEKBlue cells): 476 ± 96.7 nM
- IC50 (NanoLuc-RIPK2 [2]): 578 ± 34.1 nM
- residence time (NanoLuc-RIPK2 [3]): 66.6 min

Molecule: CCCS(=O)(=O)Nc1cc(-c2cc(-c3ccc(N4CCNCC4)cc3)cnc2C)cc(F)c1OC [CSLP53]
- IC50 (recombinant RIPK2 kinase): 1410 nM
- IC50 (NOD2/HEKBlue cells): 2560 nM
- IC50 (NanoLuc-RIPK2 [2]): > 10000 nM

Molecule: CCCS(=O)(=O)Nc1cc(F)cc(-c2cc(-c3ccc(N4CCNCC4)cc3)cnc2N)c1 [CSLP38]
- IC50 (recombinant RIPK2 kinase): 39.1 ± 1.5 nM
- IC50 (NOD2/HEKBlue cells): 740 ± 60.7 nM
- IC50 (NanoLuc-RIPK2 [2]): 167 ± 19 nM
- residence time (NanoLuc-RIPK2 [3]): 106 min

B1: RIPK2 peptide A13 (residues 28‐42) (peptide, UniProt O43353 28-42, looked up)
peptide: ASGTVSSARHADWRV
notes: 15-mer of human RIPK2, residues 28-42 (β2 and the β2‐β3 loop of the N‐lobe of the kinase domain); also called A13 peptide
- binding result (His6‐GST‐XIAP‐BIR2 D214S): binds

Molecule: ADFGLSKWRMMSLSQ (peptide, UniProt O43353 163-177, looked up, 15-mer of human RIPK2, residues 163-177) [RIPK2 peptide E6 (residues 163–177)]
- binding result (His6‐GST‐XIAP‐BIR2 D214S): binds
